# Measurements: patent US20120046306A1, “Substituted Heteroaryl Spiropyrrolidine MDM2 Antagonists” (priority 2010, published 2012)
# Target: interaction between p53 and MDM2 proteins (Homo sapiens, UniProt Q00987)
# Test: HTRF assay of inhibition of p53-MDM2 interaction
# Assay type: binding
# Details: GST-MDM2 and biotinylated p53 peptide, bsa: 0.02%
# Description: The ability of the compounds to inhibit the interaction between p53 and MDM2 proteins was measured by an HTRF (homogeneous time-resolved fluorescence) assay in which recombinant GST-tagged MDM2 binds to a peptide that resembles the MDM2-interacting region of p53. Binding of GST-MDM2 protein and p53-peptide (biotinylated on its N-terminal end) is registered by the FRET (fluorescence resonance energy transfer) between Europium (Eu)-labeled anti-GST antibody and streptavidin-conjugated Allophycocyanin (APC).
# Add 20 uL streptavidin-APC and Eu-anti-GST antibody mixture (6 nM Eu-anti-GST and 60 nM streptavidin-APC working solution) in TBS buffer with 0.2% BSA, shake at room temperature for 30 minutes and read using a TRF-capable plate reader at
# If not specified, the reagents were purchased from Sigma Chemical Co.
# interaction between p53 and MDM2 proteins, sequence (Q00987 whole entry): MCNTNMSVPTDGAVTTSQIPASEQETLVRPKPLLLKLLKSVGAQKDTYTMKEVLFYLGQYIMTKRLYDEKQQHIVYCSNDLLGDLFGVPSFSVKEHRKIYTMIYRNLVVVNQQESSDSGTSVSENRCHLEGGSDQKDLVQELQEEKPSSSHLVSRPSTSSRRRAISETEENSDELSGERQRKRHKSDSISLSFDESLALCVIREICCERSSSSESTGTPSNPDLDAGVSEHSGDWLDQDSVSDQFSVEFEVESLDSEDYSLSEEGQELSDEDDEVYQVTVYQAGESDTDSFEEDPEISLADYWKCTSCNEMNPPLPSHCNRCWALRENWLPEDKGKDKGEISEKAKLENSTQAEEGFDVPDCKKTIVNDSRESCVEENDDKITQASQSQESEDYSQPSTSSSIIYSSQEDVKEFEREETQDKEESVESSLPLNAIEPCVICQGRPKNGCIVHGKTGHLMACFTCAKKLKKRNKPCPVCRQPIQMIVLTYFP
row,IC50 [nM],SMILES
1,32.4,"COC(=O)c1ccc(NC(=O)[C@@H]2N[C@@H](CC(C)(C)C)[C@@]3(C(=O)Nc4ccncc43)[C@H]2c2cccc(Cl)c2F)c(OC)c1 (racemic) [Example 6, methyl rac-4-((2S,3R,4S,5R)-4-(3-chloro-2-fluorophenyl)-2-neopentyl-2′-oxo-1′,2′-dihydrospiro[pyrrolidine-3,3′-pyrrolo[3,2-c]pyridine]-5-ylcarboxamido)-3-methoxybenzoate]"
2,10.5,"CC(C)(C)C[C@@H]1N[C@@H](C(=O)Nc2ccc(C(=O)O)cc2)[C@H](c2cccc(Cl)c2F)[C@]12C(=O)Nc1cc(Cl)ncc12 (racemic) [Example 28, rac-4-((2S,3R,4S,5R)-6′-chloro-4-(3-chloro-2-fluorophenyl)-2-neopentyl-2′-oxo-1′,2′-dihydrospiro[pyrrolidine-3,3′-pyrrolo[3,2-c]pyridine]-5-ylcarboxamido)benzoic acid]"
3,34.5,"COc1cc(C(=O)O)ccc1NC(=O)[C@@H]1N[C@@H](CC(C)(C)C)[C@@]2(C(=O)Nc3ccc(Cl)nc32)[C@H]1c1cccc(Cl)c1F (racemic) [Example 47, rac-4-((2S,3S,4S,5R)-5′-chloro-4-(3-chloro-2-fluorophenyl)-2-neopentyl-2′-oxo-1′,2′-dihydrospiro[pyrrolidine-3,3′-pyrrolo[3,2-b]pyridine]-5-ylcarboxamido)-3-methoxybenzoic acid]"
4,14.6,"COc1cc(C(N)=O)ccc1NC(=O)[C@@H]1N[C@@H](CC(C)(C)C)[C@@]2(C(=O)Nc3cc(Cl)cnc32)[C@H]1c1cccc(Cl)c1 (racemic) [Example 63, rac-(2S,3S,4R,5R)-N-(4-carbamoyl-2-methoxyphenyl)-6′-chloro-4-(3-chlorophenyl)-2-neopentyl-2′-oxo-1′,2′-dihydrospiro[pyrrolidine-3,3′-pyrrolo[3,2-b]pyridine]-5-carboxamide]"
5,1830,"COC(=O)c1ccc(NC(=O)[C@@H]2N[C@@H](CC(C)(C)C)[C@@]3(C(=O)Nc4cc(Cl)cnc43)[C@H]2c2cccc(Br)c2F)c(OC)c1 (racemic) [Example 66, methyl rac-4-{(2S,3R,4S,5R)-4-(3-bromo-2-fluorophenyl)-6′-chloro-2-neopentyl-2′-oxo-1′,2′-dihydrospiro[pyrrolidine-3,3′-pyrrolo[3,2-b]pyridine]-5-ylcarboxamido}-3-methoxybenzoate]"
6,19.5,"COC(=O)c1ccc(NC(=O)[C@@H]2N[C@@H](CC(C)(C)C)[C@@]3(C(=O)Nc4cc(F)cnc43)[C@H]2c2cccc(Cl)c2F)c(OC)c1 (racemic) [Example 83, methyl rac-4-((2S,3S,4S,5R)-4-(3-chloro-2-fluorophenyl)-6′-fluoro-2-neopentyl-2′-oxo-1′,2′-dihydrospiro[pyrrolidine-3,3′-pyrrolo[3,2-b]pyridine]-5-ylcarboxamido)-3-methoxybenzoate]"
7,10.7,"COC(=O)c1ccc(NC(=O)[C@@H]2N[C@@H](CC(C)(C)C)[C@]3(C(=O)Nc4nc(Cl)ncc43)[C@H]2c2cccc(Cl)c2F)c(OC)c1 (racemic) [Example 91, methyl rac-4-{(2S,3S,4S,5R)-2′-chloro-4-(3-chloro-2-fluorophenyl)-2-neopentyl-6′-oxo-6′,7′-dihydrospiro[pyrrolidine-3,5′-pyrrolo[2,3-d]pyrimidine]-5-ylcarboxamido}-3-methoxybenzoate]"
8,13.6,"COC(=O)c1ccc(NC(=O)[C@@H]2N[C@@H](CC(C)(C)C)[C@@]3(C(=O)Nc4cc(OC)ncc43)[C@H]2c2cccc(Cl)c2F)c(OC)c1 (racemic) [Example 110, methyl rac-4-((2S,3R,4S,5R)-4-(3-chloro-2-fluorophenyl)-6′-methoxy-2-neopentyl-2′-oxo-1′,2′-dihydrospiro[pyrrolidine-3,3′-pyrrolo[3,2-c]pyridine]-5-ylcarboxamido)-3-methoxybenzoate]"
9,7,"COc1cc2c(cn1)[C@@]1(C(=O)N2)[C@H](CC(C)(C)C)N[C@@H](C(=O)Nc2ccc(C(=O)O)cc2OC)[C@@H]1c1cccc(Cl)c1F (racemic) [Example 111, rac-4-((2S,3R,4S,5R)-4-(3-chloro-2-fluorophenyl)-6′-methoxy-2-neopentyl-2′-oxo-1′,2′-dihydrospiro[pyrrolidine-3,3′-pyrrolo[3,2-c]pyridine]-5-ylcarboxamido)-3-methoxybenzoic acid]"
10,> 10000,"COc1cc(C(=O)O)ccc1NC(=O)[C@@H]1N[C@@H](CC(C)(C)C)[C@@]2(C(=O)Nc3cc(O)ncc32)[C@H]1c1cccc(Cl)c1F (racemic) [Example 114, rac-4-((2S,3R,4S,5R)-4-(3-chloro-2-fluorophenyl)-6′-hydroxy-2-neopentyl-2′-oxo-1′,2′-dihydrospiro[pyrrolidine-3,3′-pyrrolo[3,2-c]pyridine]-5-ylcarboxamido)-3-methoxybenzoic acid]"

# The next lines start with the molecule.
row,SMILES,IC50 [nM]
1,"COC(=O)c1ccc(NC(=O)[C@@H]2N[C@@H](CC(C)(C)C)[C@@]3(C(=O)Nc4ncccc43)[C@H]2c2cccc(Cl)c2F)c(OC)c1 (racemic) [Example 13, methyl rac-4-((2S,3R,4S,5R)-4-(3-chloro-2-fluorophenyl)-2-neopentyl-2′-oxo-1′,2′-dihydrospiro[pyrrolidine-3,3′-pyrrolo[2,3-b]pyridine]-5-ylcarboxamido)-3-methoxybenzoate]",30.3
2,"COC(=O)c1ccc(NC(=O)[C@@H]2N[C@@H](CC(C)(C)C)[C@@]3(C(=O)Nc4nc(Cl)ccc43)[C@H]2c2cccc(Cl)c2F)c(OC)c1 (racemic) [Example 35, methyl rac-4-((2S,3R,4S,5R)-6′-chloro-4-(3-chloro-2-fluorophenyl)-2-neopentyl-2′-oxo-1′,2′-dihydrospiro[pyrrolidine-3,3′-pyrrolo[2,3-b]pyridine]-5-ylcarboxamido)-3-methoxybenzoate]",14.5
3,"COc1cc(C(N)=O)ccc1NC(=O)[C@@H]1N[C@@H](CC(C)(C)C)[C@@]2(C(=O)Nc3cc(Cl)cnc32)[C@H]1c1cccc(Br)c1F (racemic) [Example 69, rac-(2S,3S,4S,5R)-4-(3-bromo-2-fluorophenyl)-N-(4-carbamoyl-2-methoxyphenyl)-6′-chloro-2-neopentyl-2′-oxo-1′,2′-dihydrospiro[pyrrolidine-3,3′-pyrrolo[3,2b]pyridine]-5-carboxamide]",12.9
4,"COc1cc(C(N)=O)ccc1NC(=O)[C@@H]1N[C@@H](CC(C)(C)C)[C@@]2(C(=O)Nc3cc(F)cnc32)[C@H]1c1cccc(Cl)c1F (racemic) [Example 86, rac-(2S,3S,4S,5R)-N-(4-carbamoyl-2-methoxyphenyl)-4-(3-chloro-2-fluorophenyl)-6′-fluoro-2-neopentyl-2′-oxo-1′,2′-dihydrospiro[pyrrolidine-3,3′-pyrrolo[3,2b]pyridine]-5-carboxamide]",18.7
5,"COc1cc(OCCO)ccc1NC(=O)[C@@H]1N[C@@H](CC(C)(C)C)[C@@]2(C(=O)Nc3nc(Cl)ncc32)[C@H]1c1cccc(Cl)c1F (racemic) [Example 89, rac-(2S,3R,4S,5R)-2′-chloro-4-(3-chloro-2-fluorophenyl)-N-[4-(2-hydroxyethoxy)-2-methoxyphenyl]-2-neopentyl-6′-oxo-6′,7′-dihydrospiro[pyrrolidine-3,5′-pyrrolo[2,3-d]pyrimidine]-5-carboxamide]",11.7
6,"COC(=O)c1ccc(NC(=O)[C@@H]2N[C@@H](CC(C)(C)C)[C@@]3(C(=O)Nc4cc(Cl)sc43)[C@H]2c2cccc(Cl)c2F)c(OC)c1 (racemic) [Example 96, methyl rac-4-((2S,3R,4R,5R)-2′-chloro-4-(3-chloro-2-fluorophenyl)-2-neopentyl-5′-oxo-4′,5′-dihydrospiro[pyrrolidine-3,6′-thieno[3,2-b]pyrrole]-5-ylcarboxamido)-3-methoxybenzoate]",22.7
7,"COC(=O)c1ccc(NC(=O)[C@@H]2N[C@@H](CC(C)(C)C)[C@@]3(C(=O)Nc4cc(O)ncc43)[C@H]2c2cccc(Cl)c2F)c(OC)c1 (racemic) [Example 113, methyl rac-4-((2S,3R,4S,5R)-4-(3-chloro-2-fluorophenyl)-6′-hydroxy-2-neopentyl-2′-oxo-1′,2′-dihydrospiro[pyrrolidine-3,3′-pyrrolo[3,2-c]pyridine]-5-ylcarboxamido)-3-methoxybenzoate]",> 10000
8,"COc1cc2c(cn1)[C@@]1(C(=O)N2)[C@H](CC(C)(C)C)N[C@@H](C(=O)Nc2ccc(C(N)=O)cc2OC)[C@@H]1c1cccc(Cl)c1F (racemic) [Example 115, rac-(2S,3R,4S,5R)-N-(4-carbamoyl-2-methoxyphenyl)-4-(3-chloro-2-fluorophenyl)-6′-methoxy-2-neopentyl-2′-oxo-1′,2′-dihydrospiro[pyrrolidine-3,3′-pyrrolo[3,2-c]pyridine]-5-carboxamide]",127
9,"COc1cc(OCCOC(C)=O)ccc1NC(=O)[C@@H]1N[C@@H](CC(C)(C)C)[C@@]2(C(=O)Nc3cc(Cl)ncc32)[C@H]1c1cccc(Cl)c1F (racemic) [Example 116, rac-2-(4-((2S,3R,4S,5R)-6′-chloro-4-(3-chloro-2-fluorophenyl)-2-neopentyl-2′-oxo-1′,2′-dihydrospiro[pyrrolidine-3,3′-pyrrolo[3,2-c]pyridine]-5-ylcarboxamido)-3-methoxyphenoxy)ethyl acetate]",12
10,"COc1cc(OCCO)ccc1NC(=O)[C@@H]1N[C@@H](CC(C)(C)C)[C@@]2(C(=O)Nc3cc(Cl)ncc32)[C@H]1c1cccc(Cl)c1F (racemic) [Example 117, rac-(2S,3R,4S,5R)-6′-chloro-4-(3-chloro-2-fluorophenyl)-N-(4-(2-hydroxyethoxy)-2-methoxyphenyl)-2-neopentyl-2′-oxo-1′,2′-dihydrospiro[pyrrolidine-3,3′-pyrrolo[3,2-c]pyridine]-5-carboxamide]",14
